# From patent US20250057963A1, “DISCOVERY OF PIPERLONGUMINE AS A NOVEL E3 LIGASE LIGAND” (University of Florida Research Foundation, Incorporated, priority 2021, published 2025)
# “Also recorded” adds a separate entry of the source.
# Assays:
# [1] = biological target: CDK9 (Homo sapiens, UniProt P50750); assay: TMT-based global proteomics in MOLT4 cells; type: cell-based; set-up: endogenous in cells; host or cells: MOLT4
# Source text: Sample Preparation and LC-MS/MS analysis. Total protein from cell pellets was reduced, alkylated, and purified by chloroform/methanol extraction prior to digestion with sequencing grade modified porcine trypsin (Cat. No. V5111, Promega). Tryptic peptides were labeled using tandem mass tag isobaric labeling reagents (Cat. No. A34808, ThermoFisher) following the manufacturer's instructions and combined into one 11-plex sample group. The labeled peptide multiplex was separated into 46 fractions on a 100×1.0 mm Acquity BEH C18 column (Waters) using an UltiMate 3000 UHPLC system (Thermo) with a 50 min gradient from 99:1 to 60:40 bufferA:B (Buffer A: 0.1% formic acid, 0.5% acetonitrile; Buffer B: 0.1% formic acid, 99.9% acetonitrile. Both buffers adjusted to pH 10 with ammonium hydroxide for offline separation) ratio under basic pH conditions, and then consolidated into 18 super-fractions. […]
# Data processing and analysis. Proteins were identified and MS3 reporter ions quantified using MaxQuant (version 2.0.3.0; Max Planck Institute) against the Homo sapiens UniprotKB database (March 2021) with a parent ion tolerance of 3 ppm, a fragment ion tolerance of 0.5 Da, and a reporter ion tolerance of 0.003 Da. Scaffold Q+S (Proteome Software) was used to verify MS/MS based peptide and protein identifications (protein identifications were accepted if they could be established with less than 1.0% false discovery and contained at least 2 identified peptides; protein probabilities were assigned by the Protein Prophet algorithm (Nesvizhskii et al., 2003) and to perform reporter ion-based statistical analysis. Protein TMT MS3 reporter ion intensity values were assessed for quality using ProteiNorm for a systematic evaluation of normalization methods (Graw et al., 2020). Cyclic loess normalization (Ritchie et al., 2015) was utilized since it had the highest intragroup correlation and the lowest variance amongst the samples. […]
# [2] = tested on: c-Myc and MCl-1; assay: c-Myc and MCL-1 expression in MOLT4 cells (qPCR and immunoblot); type: cell-based, Human
# Procedure: (§1) Cells were collected and lysed in RIPA lysis buffer (Cat. #BP-115DG, Boston Bio Products, Ashland, MA, USA) supplemented with protease and phosphatase inhibitor cocktails (Cat. #PPC1010, Sigma-Aldrich, St. Louis, MO, USA). Protein samples were made and immunoblotting was performed as described previously (Khan et al., 2019; Lv et al., 2021). Antibodies purchased from Cell Signaling Technologies (CST) and the dilutions are as follows: Biotin (Cat. No. 5571S, 1:1000), PARP (Cat. No. 9542S, 1:1000), c-Myc (Cat. No. 5605S, 1:1000), MCL1 (Cat. No. 5453S, 1:1000), and ALK (Cat. No. 3791S, 1:1000). KEAP1 antibody was purchased from Proteintech (Cat. No. 10503-2-AP, 1:1000). CDK9 antibody was purchased from Santa Cruz (Cat. No. sc-13130, 1:500). V5-tag antibody was purchased from Bethyl (Cat. No. A190-120P, 1:1000). j-actin antibody was purchased from MP Biomedicals (Cat. No. 8691001, 1:20 000).
# Total RNA was extracted as mentioned above. Reverse transcription and quantitative PCR (qPCR) was performed as described in our previous study (Lv et al., 2021). Primers used for measuring gene transcriptional level: GAPDH primers (forward 5′-[…]-3′ and reverse 5′-[…]-3′) were described previously (Zhang et al., 2018b). MCL1 primers are forward 5′-[…]-3′ and reverse 5′-[…]-3′; MYC primers are forward 5′-[…]-3′ and reverse 5′-[…]-3′.
# [3] = biological target: T1, CDK10 (Homo sapiens, UniProt Q15131); assay: CDK10 degradation in MOLT4 cells (TMT proteomics, immunoblot); type: cell-based
# T1 construct: endogenous in cells; host or cells: MOLT4
# T1 sequence (Q15131 whole entry): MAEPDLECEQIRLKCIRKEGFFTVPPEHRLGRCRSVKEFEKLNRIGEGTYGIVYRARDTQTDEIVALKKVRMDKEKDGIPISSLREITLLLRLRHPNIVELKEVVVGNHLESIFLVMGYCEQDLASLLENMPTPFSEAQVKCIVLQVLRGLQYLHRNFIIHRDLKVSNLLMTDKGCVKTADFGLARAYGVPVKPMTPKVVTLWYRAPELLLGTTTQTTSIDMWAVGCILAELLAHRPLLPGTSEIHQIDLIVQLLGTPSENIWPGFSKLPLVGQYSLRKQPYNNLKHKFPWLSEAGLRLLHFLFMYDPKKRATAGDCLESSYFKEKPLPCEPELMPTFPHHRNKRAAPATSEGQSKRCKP
# Procedure: as §1
# Sample Preparation and LC-MS/MS analysis. […]
# Data processing and analysis. Proteins were identified and MS3 reporter ions quantified using MaxQuant (version 2.0.3.0; Max Planck Institute) against the Homo sapiens UniprotKB database (March 2021) with a parent ion tolerance of 3 ppm, a fragment ion tolerance of 0.5 Da, and a reporter ion tolerance of 0.003 Da. […]
# Sequence of CDK9 (P50750 whole entry): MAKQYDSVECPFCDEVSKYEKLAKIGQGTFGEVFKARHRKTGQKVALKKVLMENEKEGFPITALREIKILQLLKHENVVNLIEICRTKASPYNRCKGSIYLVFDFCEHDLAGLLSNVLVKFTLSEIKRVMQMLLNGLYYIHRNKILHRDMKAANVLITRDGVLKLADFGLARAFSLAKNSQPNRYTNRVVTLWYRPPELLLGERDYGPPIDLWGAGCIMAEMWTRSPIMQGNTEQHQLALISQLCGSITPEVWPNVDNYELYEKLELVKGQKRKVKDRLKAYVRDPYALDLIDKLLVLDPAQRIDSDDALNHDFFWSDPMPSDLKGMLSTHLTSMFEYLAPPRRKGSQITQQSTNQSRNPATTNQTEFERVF
structure (smiles),measurement,setting,value
"COc1cc(/C=C/C(=O)N2CCC=CC2=O)cc(OC)c1OCCN1CCN(C(=O)CN2CCC(C(=O)Nc3ncc(SCc4ncc(C(C)(C)C)o4)s3)CC2)CC1 [compound 955, (E)-N-(5-(((5-(tert-butyl)oxazol-2-yl)methyl)thio)thiazol-2-yl)-1-(2-(4-(2-(2,6-dimethoxy-4-(3-oxo-3-(6-oxo-3,6-dihydropyridin-1(2H)-yl)prop-1-en-1-yl)phenoxy)ethyl)piperazin-1-yl)-2-oxoethyl)piperidine-4-carboxamide]",proteins degraded or downregulated after short treatment (global proteome),"[1]; 0.1 μM 955, 1 hour",only degraded CDK9 and CDK10 and downregulated one downstream protein FYTTD1
same,CDK9 protein level (global proteome),"[1]; 0.1 μM 955 for 1 h and 6 h, 1 μM SNS-032 for 6 h",reduced the protein level of CDK9; also recorded: significant reduction of CDK9
same,effectiveness relative to SNS-032 in downregulating c-Myc and MCl-1 (mRNA and protein),[2],~10 times
same,potency relative to SNS-032 in downregulation of c-Myc and MCl-1 (mRNA and protein),[2],about 10 fold
same,"dependence of CDK10 degradation (MG132, MLN4924 pre-treatment)",[3],UPS—and CRL-dependent manner; also recorded: proteasome- and CRL-dependent manner
same,CDK10 degradation,"[3]; 0.1 μM 955, 1 μM SNS-032",significantly decreased CDK10; also recorded: potently degrade CDK10
